Results published in patent US12213485B2, “Synergistic methods of using benzoxaborole compounds and preservative gases as an antimicrobial for crops” (AGROFRESH INC., priority 2016, dated 2025).

Legend:
Experiment in all cases: In vitro fungal growth on inoculated agar plates, benzoxaborole and CO2 chamber treatment
Type in all cases: cell-based
[1] = system: Botrytis cinerea (BOTRCI)
Excerpt: (§1) The following experiments were used to determine synergy between benzoxaborole Compounds A, B, and/or C and preservative gases, such as carbon dioxide (CO2) and sulfur dioxide (SO2). Specific rates or any other unique conditions are noted within the corresponding results tables. Each experiment comprised an air-tight 36 liter (L) chamber (Fisher Scientific, P/N: 08-642-23C), fitted with a bulkhead septum port (Swagelok, P/N: SS-400-61, Solon, OH) used for treatment delivery, as well as for monitoring (using needle extraction) carbon dioxide (CO2), sulfur dioxide (SO2), oxygen (O2) or other headspace samples. A variable speed fan (Thermaltake, Mobile Fan II, P/N: A1888, Taipei City, Taiwan) set to low was also used to circulate the headspace atmosphere.
(§2) In vitro and in vivo experiments were performed concurrently in triple replicates (i.e., triplicate) unless otherwise noted. For in vitro experiments, a single 6-well microtiter plate or three, 10-cm petri plates each containing half strength Potato Dextrose Agar were prepared. Each well or plate was inoculated with 1 microliter (μL) of 1×10^5 spores/ml of the appropriate pathogenic spore suspension (e.g., Botrytis cinerea, BOTRCI; Penicillium expansum, PENIEX; Mucor piriformis, MUCOPI; Fusarium sambucinum FUSASA; or Aspergillus brasiliensis, ASPEBR). The inoculated microtiter or petri plates were then sealed with a breathable film (AeraSeal; P/N: B-100, Excel Scientific, Victorville, CA).
(§3) For treatment, the inoculated agar plates and clamshells containing fruits (e.g., strawberries and grapes) were placed inside a 36 L experimental chamber unit, which was then sealed prior to commencement of compound treatments. The chamber remained sealed throughout the duration of the experiment except for addition of treatment to the chamber, and post-treatment ventilation.
(§4) Benzoxaborole Compound A or Compound B was dissolved in acetone and dispensed onto a 60 mm Whatman #1 filter paper disk using a pipette. The acetone was permitted to evaporate for five minutes before the disk was placed on a watch glass in each chamber.
(§5) A 12% CO2 headspace treatment was then established in the chamber by permitting 10 grams (g) of crushed dry ice placed in a weigh boat in the chamber to evaporate in the sealed chamber. However, the bulkhead port of the chamber was loosened to permit the release of internal pressure. Optionally, a fan was used during the initial hours of treatment (i.e., up to about 6 hours of treatment) to ensure uniform treatment exposure of fruits and plates.
(§6) Untreated controls and CO2 treated chambers contained an acetone-treated disk with similar evaporation for five minutes. CO2 and O2 levels in the chamber were monitored using a handheld gas detector (Dansensor Checkpoint II; P/N 600111, Ringsted, Denmark). Temperature and relative humidity were also monitored within the chamber using data loggers (Onset HOBO; P/N U12-013, Bourne, MA).
(§7) The chamber for all in vitro and in vivo experiments was held at room temperature (i.e., from about 21° C. to about 23° C.) typically for about 3.5 days (i.e., about 84 hours) of treatment exposure. Chambers were then vented. After an additional 2-3 days with the chamber at room temperature, post-treatment radial growth (in mm) of each in vitro pathogen (see Examples 1-7, Tables 1-7) was measured on the inoculated plates using electronic calipers (Mitutoyo, P/N: CD-6-CX, Aurora, IL). In addition, the point of inoculation on fruits was assessed for indication of in vivo disease incidence (e.g., yes or no) and severity of disease incidence (see Examples 8-16, Tables 8-16). Disease severity was rated on a scale ranging from 0 to 4, where “0” indicated no disease severity, “1” indicated minimal disease severity, “2” indicated medium disease severity, “3” indicated high disease severity, and “4” indicated exceptionally high disease severity. […]

[2] = system: Fusarium sambucinum (FUSASA)
Excerpt: as §1, §2, §3, §4, §5, §6, §7

[3] = system: Penicillium expansum (PENIEX)
Excerpt: as §1, §2, §3, §4, §5, §6, §7

[4] = Table 1, compound 0.14 mg/L + 12% CO2, Colby equation E=x+y−x*y/100
[5] = Table 1, compound 0.14 mg/L + 12% CO2, evaluated 2 days after treatment completion, 6-well microtiter plate, 4 replicates, fan first 6 hours
[6] = Table 1, compound alone 0.14 mg/L, evaluated 2 days after treatment completion, 6-well microtiter plate, 4 replicates, fan first 6 hours
[7] = Table 4, compound 0.14 mg/L + 12% CO2, Colby equation E=x+y−x*y/100
[8] = Table 4, compound 0.14 mg/L + 12% CO2, evaluated 2 days after treatment completion, 6-well microtiter plate, fan first 6 hours
[9] = Table 4, compound alone 0.14 mg/L, evaluated 2 days after treatment completion, 6-well microtiter plate, fan first 6 hours
[10] = Table 5, compound 0.14 mg/L + 12% CO2, Colby equation E=x+y−x*y/100
[11] = Table 5, compound 0.14 mg/L + 12% CO2, evaluated 2 days after treatment, 6-well plate, fan first 6 hours, >90% R.H.
[12] = Table 5, compound alone 0.14 mg/L, evaluated 2 days after treatment, 6-well plate, fan first 6 hours, >90% R.H.

In the case of `OB1OCc2cc(F)ccc21` [Compound A], the “Colby Calculation” value [1, 4] is reported as 165.4, the “Growth (diameter, mm) Cmpd + 12% CO2” value [1, 5] is reported as 0.0 mm and the “Growth (diameter, mm) Cmpd” value [1, 6] is reported as 16.3 mm. For the same molecule, the “Colby Calculation” value ([1]; Table 3, compound 0.14 mg/L + 12% CO2, Colby equation E=x+y−x*y/100) was 101.2, the “Growth (diameter, mm) Cmpd + 12% CO2” value ([1]; Table 3, compound 0.14 mg/L + 12% CO2, evaluated 2 days after treatment, 6-well microtiter plate, fan first 6 hours, >90% R.H.) was 4.5 mm and the “Growth (diameter, mm) Cmpd” value ([1]; Table 3, compound alone 0.14 mg/L, evaluated 2 days after treatment, 6-well microtiter plate, fan first 6 hours, >90% R.H.) was 5.5 mm. For the same molecule, the “Colby Calculation” value [1, 7] was 104.3, the “Growth (diameter, mm) Cmpd + 12% CO2” value [1, 8] was 0.0 mm and the “Growth (diameter, mm) Cmpd” value [1, 9] was 1.5 mm. For the same molecule, the “Colby Calculation” value [1, 10] was 102.9, the “Growth (diameter, mm) Cmpd + 12% CO2” value [1, 11] was 3.0 mm and the “Growth (diameter, mm) Cmpd” value [1, 12] was 3.6 mm. The “Colby Calculation” value ([1]; Table 6, compound 0.14 mg/L + 12% CO2, Colby equation E=x+y−x*y/100) was 108.2, the “Growth (diameter, mm) Cmpd + 12% CO2” value ([1]; Table 6, compound 0.14 mg/L + 12% CO2, evaluated 3 days after treatment, 10 cm petri plates, fan continuous) was 6.4 mm and the “Growth (diameter, mm) Cmpd” value ([1]; Table 6, compound alone 0.14 mg/L, evaluated 3 days after treatment, 10 cm petri plates, fan continuous) was 13.2 mm. For the same molecule, the “Colby Calculation” value [2, 10] was 104.0, the “Growth (diameter, mm) Cmpd + 12% CO2” value [2, 11] was 3.8 mm and the “Growth (diameter, mm) Cmpd” value [2, 12] was 5.0 mm. For the same molecule, the “Colby Calculation” value [3, 4] was 225.0, the “Growth (diameter, mm) Cmpd + 12% CO2” value [3, 5] was 3.3 mm and the “Growth (diameter, mm) Cmpd” value [3, 6] was 17.0 mm. For the same molecule, the “Colby Calculation” value ([3]; Table 2, compound 0.14 mg/L + 12% CO2, Colby equation E=x+y−x*y/100) was 119.7, the “Growth (diameter, mm) Cmpd + 12% CO2” value ([3]; Table 2, compound 0.14 mg/L + 12% CO2, evaluated 2 days after treatment, 6-well microtiter plate, fan first 6 hours, >90% R.H.) was 5.2 mm and the “Growth (diameter, mm) Cmpd” value ([3]; Table 2, compound alone 0.14 mg/L, evaluated 2 days after treatment, 6-well microtiter plate, fan first 6 hours, >90% R.H.) was 9.7 mm. The “Colby Calculation” value [3, 7] was 124.4, the “Growth (diameter, mm) Cmpd + 12% CO2” value [3, 8] was 0.5 mm and the “Growth (diameter, mm) Cmpd” value [3, 9] was 6.4 mm. The “Colby Calculation” value [3, 10] was 102.5, the “Growth (diameter, mm) Cmpd + 12% CO2” value [3, 11] was 8.6 mm and the “Growth (diameter, mm) Cmpd” value [3, 12] was 10.2 mm. For the same molecule, the “Colby Calculation” value ([3]; Table 7, compound 0.035 mg/L + 12% CO2, Colby equation E=x+y−x*y/100) was 114.7, the “Growth (diameter, mm) Cmpd + 12% CO2” value ([3]; Table 7, compound 0.035 mg/L + 12% CO2, evaluated 3 days after treatment, 10 cm Petri plates, fan continuous) was 4.7 mm and the “Growth (diameter, mm) Cmpd” value ([3]; Table 7, compound alone 0.035 mg/L, evaluated 3 days after treatment, 10 cm Petri plates, fan continuous) was 10.6 mm.
